Marks after values point to notes of the source that are not given here.

Data on 1 compound can be found in patent publication EP0465096A1, “Plasma cholesterol level lowering composition” (MERCK & CO. INC., priority 1990, dated 1992).

The assay deals with dogs. The assay can be described thus: Plasma cholesterol lowering in dogs, oral bolus (rapid release) vs 24 h gastric infusion (Example 1). It counts as in vivo. To be noted: ammonium salt, 10 mg/kg/day for 28 days, vs pre-dosing level. As to the method: 7-[1,2,6,7,8,8a(R)-hexahydro-2(S),6(R)-dimethyl-8(S)-(2,2-dimethylbutyryloxy)-naphthalenyl-1(S)]-3(R),5(R)-dihydroxyheptanoic acid, an HMG-CoA reductase inhibitor which is the ring opened dihydroxy acid of simvastatin, was administered to dogs as the ammonium salt as either an oral bolus dose (rapid release) or as a continuous gastric infusion over 24 hours (simulated controlled release). In both cases, each dog received a dose of 10 mg/kg/day for 28 days of the above named HMG-CoA reductase inhibitor. Plasma cholesterol was determined throughout the entire study and drug-treatment levels compared to control cholesterol levels (pre-dosing) for each dog. Circulating plasma levels of the above named HMG-CoA reductase inhibitor were determined on Day 16 of each drug dosing period.

On to `CCC(C)(C)C(=O)O[C@H]1C[C@@H](C)C=C2C=C[C@H](C)[C@H](CC[C@@H](O)C[C@@H](O)CC(=O)O)[C@H]21` [7-[1,2,6,7,8,8a(R)-hexahydro-2(S),6(R)-dimethyl-8(S)-(2,2-dimethylbutyryloxy)-naphthalenyl-1(S)]-3(R),5(R)-dihydroxyheptanoic acid], for which the “Mean Maximum Reduction In Plasma Cholesterol” value (continuous gastric infusion over 24 hours (simulated controlled release), mean ± SD, n = 4 dogs) was 60 ± 4.0^b percent and the “Mean Maximum Reduction In Plasma Cholesterol” value (oral bolus dose (rapid release), n = 1 dog) is listed as 31^a percent.
